Reference: patent publication US20030235904A1, “Bacterial parts washer, composition and method of use” (Osprey Biotechnics, Inc., priority 2002, published 2003)

How the values were obtained:
[1] = tested on: Pseudomonas putida NRRL-B-18118; experiment: Shelf-life of the pseudomonad stored with NEODOL 91-6 (plate counts); assay type: cell-based
Experimental: The Pseudomonas putida NRRL-B-18118 was stabilized in a liquid according to the method described in U.S. Pat. No. 5,980,747 to Vandenbergh. Briefly, sodium nitrate was mixed with water in an amount of 0.26 gm per 100 gm (mL) of water. This produced a 0.26% solution by weight. To this solution, Pseudomonas putida NRRL-B-18118 was added in an amount to provide a final concentration of 1.4×10^8 CFU/mL of the pseudomonad and a final concentration of nitrate of 0.13%. Optionally, a buffering amount of monoammonium phosphate was added at a ratio between about 1:1 to 125:1 sodium nitrate to monoammonium phosphate to enhance the preservation of the pseudomonad at 25° C.
Pseudomonas putida NRRL-B-18118 was stabilized in a liquid according as described in Example 1. The stabilized pseudomonads were then mixed with the ethoxylated surfactant NEODOL 91-6 at the appropriate amount to arrive at the appropriate fixed concentration. The solutions were incubated at 25° C. At various times, aliquots were removed and plated on agar plates and the colony forming units (CFU) per mL were recorded.

[2] = tested on: Pseudomonas putida NRRL-B-18118; experiment: Oxygen uptake (BOD analyzer) with NEODOL 91-6 and 1% motor oil; assay type: cell-based; design: oxygen uptake: unit not given here; settings: for oxygen uptake: 25° C.
Experimental: The assay measured oxygen uptake of Pseudomonas putida NRRL-B-18118 in the presence 0.001 to 1.0% NEODOL 91-6 and 1% motor oil in a minimal media broth. The pseudomonads were suspended at 10^8 CFU/mL and placed in a HATCH Model 2173B biological oxygen demand (BOD) analyzer at 25° C. […] was measured over a 48 hour time period.

(C9-C11) alkyl alcohol ethoxylate (polyethyleneglycol-(C9-C11)-ether) [NEODOL 91-6]
CFU/mL (time) ([1]; 0.5% NEODOL 91-6, 25° C., 1 Month): 5.0 × 10^7 CFU/mL | CFU/mL (time) ([1]; 0.5% NEODOL 91-6, 25° C., 3 Months): 1.0 × 10^7 CFU/mL | CFU/mL (time) ([1]; 0.5% NEODOL 91-6, 25° C., 5 Months): 3.0 × 10^7 CFU/mL | CFU/mL (time) ([1]; 0.5% NEODOL 91-6, 25° C., 7 Months): 6.0 × 10^6 CFU/mL | CFU/mL (time) ([1]; 0.5% NEODOL 91-6, 25° C., Zero (h)): 1.4 × 10^8 CFU/mL | CFU/mL (time) ([1]; 1.0% NEODOL 91-6, 25° C., 1 Month): 5.0 × 10^7 CFU/mL | CFU/mL (time) ([1]; 1.0% NEODOL 91-6, 25° C., 3 Months): 1.5 × 10^7 CFU/mL | CFU/mL (time) ([1]; 1.0% NEODOL 91-6, 25° C., 5 Months): 1.0 × 10^7 CFU/mL | CFU/mL (time) ([1]; 1.0% NEODOL 91-6, 25° C., 7 Months): 1.0 × 10^6 CFU/mL | CFU/mL (time) ([1]; 1.0% NEODOL 91-6, 25° C., Zero (h)): 1.4 × 10^8 CFU/mL | CFU/mL (time) ([1]; 5.0% NEODOL 91-6, 25° C., 1 Month): 5.0 × 10^7 CFU/mL | CFU/mL (time) ([1]; 5.0% NEODOL 91-6, 25° C., 3 Months): 1.4 × 10^7 CFU/mL | CFU/mL (time) ([1]; 5.0% NEODOL 91-6, 25° C., 5 Months): 1.0 × 10^7 CFU/mL | CFU/mL (time) ([1]; 5.0% NEODOL 91-6, 25° C., 7 Months): 1.0 × 10^6 CFU/mL | CFU/mL (time) ([1]; 5.0% NEODOL 91-6, 25° C., Zero (h)): 1.4 × 10^8 CFU/mL | effect on shelf-life of Pseudomonas putida NRRL-B-18118 ([1]; NEODOL 91-6 0.5 to 5% in the storage solution): not adversely affected | decrease in viability of the pseudomonads ([1]; stored in the presence of NEODOL 91-6, over seven months): two log decrease | oxygen uptake ([2]; 0.001% NEODOL 91-6, 1% motor oil, 0 h): 0 | oxygen uptake ([2]; 0.001% NEODOL 91-6, 1% motor oil, 12 h): 40 | oxygen uptake ([2]; 0.001% NEODOL 91-6, 1% motor oil, 21 h): 100 | oxygen uptake ([2]; 0.001% NEODOL 91-6, 1% motor oil, 28 h): 140 | oxygen uptake ([2]; 0.001% NEODOL 91-6, 1% motor oil, 31 h): 160 | oxygen uptake ([2]; 0.001% NEODOL 91-6, 1% motor oil, 48 h): 200 | oxygen uptake ([2]; 0.01% NEODOL 91-6, 1% motor oil, 0 h): 0 | oxygen uptake ([2]; 0.01% NEODOL 91-6, 1% motor oil, 12 h): 40 | oxygen uptake ([2]; 0.01% NEODOL 91-6, 1% motor oil, 21 h): 40 | oxygen uptake ([2]; 0.01% NEODOL 91-6, 1% motor oil, 28 h): 60 | oxygen uptake ([2]; 0.01% NEODOL 91-6, 1% motor oil, 31 h): 60 | oxygen uptake ([2]; 0.01% NEODOL 91-6, 1% motor oil, 48 h): 110 | oxygen uptake ([2]; 0.1% NEODOL 91-6, 1% motor oil, 0 h): 0 | oxygen uptake ([2]; 0.1% NEODOL 91-6, 1% motor oil, 12 h): 20 | oxygen uptake ([2]; 0.1% NEODOL 91-6, 1% motor oil, 21 h): 40 | oxygen uptake ([2]; 0.1% NEODOL 91-6, 1% motor oil, 28 h): 60 | oxygen uptake ([2]; 0.1% NEODOL 91-6, 1% motor oil, 31 h): 80 | oxygen uptake ([2]; 0.1% NEODOL 91-6, 1% motor oil, 48 h): 110 | oxygen uptake ([2]; 0.5% NEODOL 91-6, 1% motor oil, 0 h): 0 | oxygen uptake ([2]; 0.5% NEODOL 91-6, 1% motor oil, 12 h): 20 | oxygen uptake ([2]; 0.5% NEODOL 91-6, 1% motor oil, 21 h): 40 | oxygen uptake ([2]; 0.5% NEODOL 91-6, 1% motor oil, 28 h): 50 | oxygen uptake ([2]; 0.5% NEODOL 91-6, 1% motor oil, 31 h): 70 | oxygen uptake ([2]; 0.5% NEODOL 91-6, 1% motor oil, 48 h): 90 | oxygen uptake ([2]; 1.0% NEODOL 91-6, 1% motor oil, 0 h): 0 | oxygen uptake ([2]; 1.0% NEODOL 91-6, 1% motor oil, 12 h): 10 | oxygen uptake ([2]; 1.0% NEODOL 91-6, 1% motor oil, 21 h): 20 | oxygen uptake ([2]; 1.0% NEODOL 91-6, 1% motor oil, 28 h): 30 | oxygen uptake ([2]; 1.0% NEODOL 91-6, 1% motor oil, 31 h): 50 | oxygen uptake ([2]; 1.0% NEODOL 91-6, 1% motor oil, 48 h): 80 | function of the pseudomonads in the presence of NEODOL 91-6 ([2]; tested NEODOL 91-6 concentrations, 48 hour time period): remained functional
